pIC50: −log10 of the molar value. In brackets after ≈: the same amount, converted by molar mass. Activity calls are given as the source filed them. The rule behind the calls is not given here.
Experiments:
[1] = test system: CCRF-CEM; assay: Cytotoxicity against human CCRF-CEM cells assessed as reduction in cell number after 72 hrs by cell counting assay; type: functional, cell-based
[2] = test system: HeLa; assay: Cytotoxicity against human HeLa cells assessed as reduction in cell number after 72 hrs by cell counting assay; type: functional, cell-based
[3] = test system: L1210; assay: Cytotoxicity against mouse L1210 cells assessed as reduction in cell number after 48 hrs by cell counting assay; type: functional, cell-based; conditions: L1210, 48 h
[4] = test system: Enterococcus faecalis; assay: Antibacterial activity against vancomycin-resistant Enterococcus faecalis ATCC 51299 assessed as growth inhibition after 16 to 20 hrs by microbroth dilution method; type: functional
[5] = test system: Staphylococcus aureus; assay: Antibacterial activity against methicillin-resistant Staphylococcus aureus subsp. aureus ATCC 43300 assessed as growth inhibition after 16 to 20 hrs by microbroth dilution method; type: functional
[6] = test system: Bacillus spizizenii; assay: Antibacterial activity against Bacillus subtilis ATCC 6633 assessed as growth inhibition after 16 to 20 hrs by microbroth dilution method; type: functional
[7] = test system: Pseudomonas aeruginosa; assay: Antibacterial activity against Pseudomonas aeruginosa ATCC 27853 assessed as growth inhibition after 16 to 20 hrs by microbroth dilution method; type: functional
[8] = test system: Escherichia coli; assay: Antibacterial activity against Escherichia coli ATCC 25922 assessed as growth inhibition after 16 to 20 hrs by microbroth dilution method; type: functional
[9] = test system: L1210; assay: Induction of apoptosis in mouse L1210 cells assessed as early apoptosis at 5.4 uM after 48 hrs by Annexin-V/7-AAD staining-based flow cytometric analysis (rvb = 3.36%); type: functional
[10] = test system: L1210; assay: Cell cycle arrest in mouse L1210 cells at 5.4 uM after 24 to 48 hrs by propidium iodide staining-based flow cytometric analysis; type: functional
[11] = test system: Bacillus spizizenii; assay: Antibacterial activity against Bacillus subtilis ATCC 6633 assessed as growth inhibition at 100 uM after 16 to 20 hrs by microbroth dilution method; type: functional
[12] = test system: L1210; assay: Induction of apoptosis in mouse L1210 cells assessed as necrotic cell level at 5.4 uM after 48 hrs by Annexin-V/7-AAD staining-based flow cytometric analysis (reference value: 8.13%); type: functional
[13] = test system: HEL; assay: Cytotoxicity against human HEL cells assessed as reduction in cell number by cell counting assay; type: functional
[14] = test system: Vero; assay: Cytotoxicity against African green monkey Vero cells assessed as reduction in cell number; type: cell-based; conditions: chlorocebus sabaeus
[15] = test system: L1210; assay: Induction of apoptosis in mouse L1210 cells assessed as viable cell level at 5.4 uM after 48 hrs by Annexin-V/7-AAD staining-based flow cytometric analysis (reference value: 83%); type: functional
[16] = test system: Staphylococcus aureus; assay: Antibacterial activity against methicillin-resistant Staphylococcus aureus subsp. aureus ATCC 43300 assessed as growth inhibition at 100 uM after 16 to 20 hrs by microbroth dilution method; type: functional, organism-based
[17] = test system: Pseudomonas aeruginosa; assay: Antibacterial activity against Pseudomonas aeruginosa ATCC 27853 assessed as growth inhibition at 100 uM after 16 to 20 hrs by microbroth dilution method; type: functional, organism-based
[18] = test system: Cryptococcus neoformans; assay: Antifungal activity against Cryptococcus neoformans B4546 assessed as growth inhibition after 48 hrs by microbroth dilution method; type: functional; conditions: B4546, 48 h
[19] = test system: L1210; assay: Cytotoxicity against mouse L1210 cells assessed as reduction in cell viability after 48 hrs by MTT assay; type: functional, cell-based; conditions: L1210, 48 h
[20] = test system: HeLa; assay: Cytotoxicity against human HeLa cells assessed as reduction in cell number; type: functional
[21] = test system: Cryptococcus neoformans; assay: Antifungal activity against Cryptococcus neoformans JEC20 assessed as growth inhibition after 48 hrs by microbroth dilution method; type: functional; conditions: JEC20, 48 h
[22] = test system: L1210; assay: Induction of apoptosis in mouse L1210 cells assessed as late apoptosis at 5.4 uM after 48 hrs by Annexin-V/7-AAD staining-based flow cytometric analysis (reference value: 4.46%); type: functional
[23] = test system: Candida albicans; assay: Antifungal activity against Candida albicans ATCC 10231 assessed as growth inhibition after 16 to 20 hrs by microbroth dilution method; type: functional
[24] = test system: Enterococcus faecalis; assay: Antibacterial activity against vancomycin-resistant Enterococcus faecalis ATCC 51299 assessed as growth inhibition at 100 uM after 16 to 20 hrs by microbroth dilution method; type: functional, organism-based
[25] = test system: Escherichia coli; assay: Antibacterial activity against Escherichia coli ATCC 25922 assessed as growth inhibition at 100 uM after 16 to 20 hrs by microbroth dilution method; type: functional, organism-based

With O=c1[nH]c(=O)c2scc(Br)c2[nH]1 as the molecule, how does the pIC50 [1] read?
Its pIC50 is under 3.60.

What about the pIC50 [2] of the same molecule?
Its pIC50 is under 3.60.

What about the pIC50 [3] of the same molecule?
The pIC50 was under 3.60.

With COc1nc(OC)c2scc([C@H]3C[C@H](OC(C)=O)[C@@H](COC(C)=O)O3)c2n1 as the molecule, how does the pIC50 [1] read?
The pIC50 was under 3.60.

And the pIC50 [2]?
The pIC50 was under 3.60.

And the pIC50 [3]?
Its pIC50 is under 3.60.

CN(C)[C@@H]1C(O)=C(C(N)=O)C(=O)[C@@]2(O)C(O)=C3C(=O)c4c(O)cccc4[C@@](C)(O)[C@H]3C[C@@H]12 [TETRACYCLINE] was tested. Which MIC95 [4] did it give?
The MIC95 was 10 µg/mL (≈ 22.5 µM).

What about the MIC95 [5] of the same molecule?
Its MIC95 is 10 µg/mL (≈ 22.5 µM).

What about the MIC95 [6] of the same molecule?
Its MIC95 is 10 µg/mL (≈ 22.5 µM).

What about the MIC95 [7] of the same molecule?
The MIC95 was 50 µg/mL (≈ 113 µM).

And the MIC95 [8]?
Its MIC95 is 10 µg/mL (≈ 22.5 µM).

Which results are given for Clc1nc(Cl)c2scc(Br)c2n1?
Activity [9]: 33.3%; Activity [10]: inactive; pIC50 [1]: 4.85; inhibition [11]: inactive; Activity [12]: 1.84%; MIC99 [13]: 20 µM (≈ 5.68 µg/mL); MIC99 [14]: 20 µM (≈ 5.68 µg/mL); Activity [15]: 43.1%; inhibition [16]: inactive; inhibition [17]: inactive; pIC50 [2]: 5.37; MIC95 [18]: 7 µM (≈ 1.99 µg/mL); pIC50 [3]: 5.27; pIC50 [19]: 5.27; MIC99 [20]: 20 µM (≈ 5.68 µg/mL); MIC95 [21]: 5.8 µM (≈ 1.65 µg/mL); Activity [22]: 21.8%; MIC95 [23]: 10.7 µM (≈ 3.04 µg/mL); inhibition [24]: inactive; inhibition [25]: inactive

Reference: ChEMBL document CHEMBL3232736, “Antiproliferative activities of halogenated thieno[3,2-d]pyrimidines” (Bioorg Med Chem, 2014)
